According to US20240041042A1, “1-(PYRIDYL)-5-AZINYLPYRAZOLE DERIVATIVES, AND THEIR USE FOR CONTROL OF UNDESIRED PLANT GROWTH” (Bayer Aktiengesellschaft, priority 2020, published 2024):
Read-outs that look alike come from different tables or passages of the source.

Experiments:
Type in all cases: in vivo
[1] = system: Avena fatua (AVEFA); test: Pre-emergence herbicidal action against AVEFA; conditions: 320 g/ha, visual scoring after about 3 weeks vs untreated controls
In short: (§1)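 Seeds sown in pots and covered with soil; WP or EC formulations sprayed onto the soil surface at 600 l/ha water with 0.5% additive, at 320 g/ha or lower. Greenhouse growth for about 3 weeks, then visual scoring as % effect against untreated controls (100% = plants dead).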

[2] = system: Matricaria inodora (MATIN); test: Post-emergence herbicidal action against MATIN; conditions: dosage 80 g/ha
In short: (§2)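 Doses of 320 g/ha or lower, suffixes a, b and c marking different dosages, were applied post-emergence at the one-leaf stage in 600 l/ha water with 0.5% additive. Damage was assessed visually after about 3 weeks in the greenhouse.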

[3] = system: Alopecurus myosuroides (ALOMY); test: Post-emergence herbicidal action against ALOMY; conditions: visual rating about 3 weeks after treatment vs untreated controls (100% = plants have died, 0% = like control plants)
In short: as §2

[4] = system: Matricaria inodora (MATIN); test: Pre-emergence herbicidal action against MATIN; conditions: dosage 320 g/ha
In short: as §1

[5] = system: Lolium rigidum (LOLRI); test: Pre-emergence herbicidal action against LOLRI
In short: as §1

[6] = system: Verconica persica (VERPE); test: Post-emergence herbicidal action against VERPE
In short: as §2

[7] = system: Setaria viridis (SETVI); test: Pre-emergence herbicidal action against SETVI
In short: as §1

[8] = system: Amaranthus retroflexus (AMARE); test: Pre-emergence herbicidal action against AMARE; conditions: visual scoring after about 3 weeks vs untreated controls
In short: as §1

[9] = system: Avena fatua (AVEFA); test: Post-emergence herbicidal action against AVEFA; conditions: visual rating about 3 weeks after treatment
In short: as §2

[10] = system: Verconica persica (VERPE); test: Pre-emergence herbicidal action against VERPE; conditions: dosage 320 g/ha
In short: as §1

[11] = system: Polygonum convolvulus (POLCO); test: Pre-emergence herbicidal action against POLCO
In short: as §1

[12] = system: Echinochloa crus-galli (ECHCG); test: Pre-emergence herbicidal action against ECHCG
In short: as §1

[13] = system: Setaria viridis (SETVI); test: Post-emergence herbicidal action against SETVI
In short: as §2

[14] = system: Alopecurus myosuroides (ALOMY); test: Pre-emergence herbicidal action against ALOMY; conditions: scored visually after about 3 weeks, 100% = plants have died
In short: as §1

[15] = system: Zea mays (ZEAMX)
In short: (§3)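 Test crops were treated 2 to 3 weeks after sowing, once they reached one leaf, by spraying compound in water with 0.5% additive at 600 l/ha. Visual scoring compared them with untreated controls roughly 3 weeks on, and appendices a, b and c denote different doses.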

[16] = system: Oryza sativa (ORYSA); conditions: crop plant compatibility
In short: as §3

[17] = system: Digitaria sanguinalis (DIGSA); test: Pre-emergence herbicidal action against DIGSA
Excerpt: Seeds of monocotyledonous and dicotyledonous weed plants and crop plants are placed in plastic or organic planting pots and covered with soil. The compounds of the invention, formulated in the form of wettable powders (WP) or as emulsion concentrates (EC), are then applied to the surface of the covering soil as aqueous suspension or emulsion with addition of 0.5% additive at a water application rate equivalent to 600 l/ha. After the treatment, the pots are placed in a greenhouse and kept under good growth conditions for the trial plants. After about 3 weeks, the effect of the preparations is scored visually in comparison with untreated controls as percentages. For example, 100% activity=the plants have died, 0% activity=like control plants.
Tables A1 to A13 below show the effects of selected compounds of the general formula (I) on various harmful plants and at an application rate corresponding to 320 g/ha or lower, which were obtained by the experimental procedure mentioned above. The appendices “a”, “b” and “c” give differentiation by dosage used with otherwise the same harmful plants tested.

[18] = system: Viola tricolor (VIOTR); test: Pre-emergence herbicidal action against VIOTR
In short: as §1

[19] = system: Digitaria sanguinalis (DIGSA); test: Post-emergence herbicidal action against DIGSA; conditions: visual rating about 3 weeks after treatment
In short: as §2

[20] = system: Echinochloa crus-galli (ECHCG); test: Post-emergence herbicidal action against ECHCG
In short: as §2

[21] = system: Pharbitis purpurea (PHBPU); test: Post-emergence herbicidal action against PHBPU
In short: as §2

[22] = system: Amaranthus retroflexus (AMARE); test: Post-emergence herbicidal action against AMARE
In short: as §2

[23] = system: Lolium rigidum (LOLRI); test: Post-emergence herbicidal action against LOLRI
In short: as §2

[24] = system: Viola tricolor (VIOTR); test: Post-emergence herbicidal action against VIOTR
In short: as §2

[25] = system: Pharbitis purpurea (PHBPU); test: Pre-emergence herbicidal action against PHBPU; conditions: dosage 320 g/ha
In short: as §1

[26] = system: Polygonum convolvulus (POLCO); test: Post-emergence herbicidal action against POLCO
In short: as §2

[27] = 80 g/ha, effect in comparison to untreated controls
[28] = 80 g/ha, visual scoring after about 3 weeks vs untreated controls

SMILES	Pre-emergence action against AVEFA in % [1]	Pre-emergence action against MATIN in % [4]	Pre-emergence action against LOLRI in % ([5]; dosage 320 g/ha)	Post-emergence action against VERPE in % ([6]; dosage 80 g/ha)	Pre-emergence action against SETVI in % ([7]; dosage 80 g/ha)	Pre-emergence action against SETVI in % ([7]; dosage 320 g/ha)	Pre-emergence action against AMARE in % ([8]; 320 g/ha)	Post-emergence action against AVEFA in % ([9]; 80 g/ha)	Pre-emergence action against POLCO in % ([11]; dosage 320 g/ha)	Pre-emergence action against ECHCG in % ([12]; dosage 320 g/ha)	Post-emergence action against SETVI in % ([13]; dosage 80 g/ha)	Pre-emergence action against ALOMY ([14]; 80 g/ha)	Pre-emergence action against ALOMY ([14]; 320 g/ha)	Post-emergence action against ORYSA in % [16, 27]	Pre-emergence action against DIGSA in % [17, 28]	Pre-emergence action against DIGSA in % ([17]; dosage 320 g/ha)	Pre-emergence action against VIOTR in % ([18]; 320 g/ha, Viola tricolor)	Pre-emergence action against VIOTR in % ([18]; dosage 80 g/ha)	Post-emergence action against DIGSA in % ([19]; 80 g/ha)	other results
COCCOC(=O)COc1nn(-c2ncccc2F)c(-c2ccc(F)nc2)c1Br [Example I-29]	90%	100%	100%	80%	90%	100%	100%	80%	90%	100%	80%	90%	100%	20%	100%	100%	100%	90%	90%	Post-emergence action against MATIN in % [2]: 90%; Post-emergence action against ALOMY in % ([3]; 80 g/ha): 100%; Pre-emergence action against AMARE in % ([8]; 80 g/ha): 90%; Pre-emergence action against VERPE in % [10]: 90%; Post-emergence action against ZEAMX in % (crop plant compatibility) ([15]; 20 g/ha, ZEAMX, effect in comparison to untreated controls): 10%; Post-emergence action against ZEAMX in % ([15]; crop plant compatibility, 80 g/ha, effect vs untreated controls): 20%; Post-emergence action against ORYSA in % ([16]; 20 g/ha, effect vs untreated controls): 10%; Post-emergence action against ECHCG in % ([20]; dosage 80 g/ha): 80%
C=C(COC(=O)[C@@H](C)Oc1nn(-c2ccccn2)c(-c2ccc(F)nc2)c1Cl)C(=O)OC [Example I-322]	90%	80%	100%	80%	90%	100%	100%	80%	90%	100%	80%	80%	100%	10%	100%	100%	100%	80%	80%	Post-emergence action against PHBPU in % ([21]; dosage 80 g/ha): 80%; Post-emergence action against PHBPU in % ([21]; dosage 320 g/ha): 80%; Post-emergence action against ALOMY in % ([3]; 320 g/ha): 80%; Pre-emergence action against LOLRI in % ([5]; dosage 80 g/ha): 90%; Post-emergence action against VERPE in % ([6]; 320 g/ha, VERPE): 80%; Post-emergence action against AMARE in % ([22]; 80 g/ha, visual rating about 3 weeks after treatment vs untreated controls (100% = plants have died, 0% = like control plants)): 80%; Post-emergence action against AMARE in % ([22]; 320 g/ha, visual rating about 3 weeks after treatment): 80%; Post-emergence action against AVEFA in % ([9]; 320 g/ha): 80%; Pre-emergence action against POLCO in % ([11]; dosage 80 g/ha): 80%; Pre-emergence action against ECHCG in % ([12]; dosage 80 g/ha): 80%; Post-emergence action against LOLRI in % ([23]; dosage 80 g/ha): 80%; Post-emergence action against LOLRI in % ([23]; dosage 320 g/ha): 80%; Post-emergence action against SETVI in % ([13]; dosage 320 g/ha): 80%; Post-emergence action against VIOTR in % ([24]; 80 g/ha): 80%; Post-emergence action against VIOTR in % ([24]; 320 g/ha): 80%; Pre-emergence action against PHBPU in % [25]: 90%; Post-emergence action against POLCO in % ([26]; dosage 80 g/ha): 80%; Post-emergence action against POLCO in % ([26]; dosage 320 g/ha): 80%; Post-emergence action against DIGSA in % ([19]; 320 g/ha): 80%; Post-emergence action against ECHCG in % ([20]; dosage 320 g/ha): 80%
